Assay results taken from article PMC4434572, “Identification of novel drugs to target dormant micrometastases” (BMC Cancer, 2015).
Where two headings read alike, the source gives them in different places.

Tests used:
MDA-MB-435 cells = test: Proliferation (CFDA-AM esterase assay) of cells grown on SISgel, plastic or Matrigel, 48 h drug exposure; format: cell-based; conditions: for SI (EC50-P/EC50-S): ratio of EC50 on plastic versus SISgel
Text: The libraries were obtained from the NCI (Diversity Library I) comprised of 2,918 compounds and a 10,000 compound diversity library from ChemBridge, Inc. (DiverSet-EXP). The NCI library is no longer available in the form used here, but how it was constructed is described (http://dtp.nci.nih.gov/branches/dscb/diversity_explanation.html). The ChemBridge library is a subset (Set Code NM1024) of the full 50,000 compound library (http://www.chembridge.com/screening_libraries/diversity_libraries/). Compounds were diluted to 100 μM before use. SISgel was prepared as described previously from powdered porcine small intestine submucosa obtained from Cook Biotech (W. Lafayette, IN). It is a natural product that is used extensively in tissue engineering as a bioscaffold. J82 bladder cancer cells and other cell lines were obtained from the ATCC (Bethesda, MD). The basic principle is that cells grown on any ECM are, in general, expected to show higher resistance to anticancer compounds than when grown on plastic. Therefore, compounds that show a higher activity toward cancer cells on a normal ECM than on a plastic surface would be candidates to target suppressed, micrometastatic cells. Efficacy in vitro was assessed by plating 30,000 cells in 50 μL of high glucose DMEM with penicillin-streptomycin and 10 % fetal calf serum on SISgel in a 96-well plate containing 50 μL of gelled SISgel per well. Cells were allowed to attach and assume the SISgel phenotype for 48 h. A matching plate without SISgel was prepared 24 h later by pipetting 3,000 cells in 100 μL of high glucose DMEM with penicillin-streptomycin and 10 % fetal calf serum into each well of 96 well plate. The cells were allowed to attach and grow for 24 h. These numbers of cells gave approximately equal replication rates at the time drug was added for cells grown on the plastic surface or SISgel as determined by the fraction of S-phase cells identified by flow cytometry. The cells were exposed to drug in fresh medium for 48 h, at which time the cell number was determined using the CFDA-AM cellular esterase proliferation assay (cat. #C1354, Life Technologies). For screening the results are reported as the ratio of cell count of cells on the plastic surface to the cell count on SISgel. An initial difference of 1.5 fold identified potential hits. All potential hits were confirmed in triplicate. Those compounds that replicated were confirmed by a full dose–response study yielding an EC50 using five wells per drug concentration. Data were analyzed using nonlinear regression to a sigmoid curve with Prism 4 (GraphPad Software, Inc., LaJolla, CA). Potential hits that were confirmed by dose–response using J82 were also tested with MDA-MB-435 breast cancer, PC-3 metastatic prostate cancer, Capan1 pancreatic cancer and the J82 bladder cancer cell lines.

[1] = tested on: 4T1 stem cells (CD44v3highALDH1high 4T1 cells); test: Tumor cell growth inhibition of sphere-derived cancer stem cells (CellTiter-Glo); format: cell-based, mouse; conditions: for Fold change: stem cell EC50 vs parental EC50
Experimental: Sphere formation to further increase the fraction of cancer stem cells was induced by suspending CD44v3highALDH1high 4T1 cells in 1:1 Matrigel/basal medium in a total of volume of 100 μl. Samples (5 × 10^4 cells) were then plated around the rims of wells in a 12-well plate and allowed to solidify at 37 °C for 10 min before 1 ml basal medium (with B27 plus 20 ng/mL EGF, 10 ng/mL FGF and 4 μg/mL insulin) was added. Medium was replenished every 3-days. Ten days after plating, spheres (tight, spherical, nonadherent masses >40 μm in diameter) per well were counted, and at least 100 spheres per group were measured. The number of spheres containing CD44v3highALDH1high 4T1 cells in each well and expressed as sphere forming units (SFU) as described previously. The number of SFUs per well was counted in triplicate wells for each condition.
To recover CD44v3highALDH1high 4T1 cells from the spheres, Matrigel–containing wells were treated with 1 mg/ml Dispase solution (Gibco). Spheres were then digested with trypsin and 0.05 % EDTA. CD44v3highALDH1high cells dissociated from spheres were counted by hemacytometer and replated to generate spheres of next generation. Serial passage of individual spheres was regularly performed in order to verify self-renewal capability of cells associated the spheres. Measurement of growth for CD44v3highALDH1high cells (dissociated from spheres) was also performed by incubating these cells in serum-free RPMI-1640 medium for 3-weeks using MTT-based growth assay as described previously.
To analyze tumor cell growth properties, sphere-derived CD44v3highALDH1high 4T1 cells were incubated in basal medium (with B27 plus 20 ng/mL EGF, 10 ng/mL FGF and 4 μg/mL insulin). Medium was replenished every 3-days. Twenty-one days after plating, the number of cell growth was then counted under a microscope at low magnification. In some cases, these sphere-derived CD44v3highALDH1high 4T1 cells were also treated with DT compounds for 5 days or doxorubicin (range 1 μM to 1 mM) for 5 days at 37 °C. The CellTiter-Glo® Luminescent Cell Viability Assay (Promega, Madison, WI) was utilized to determine the number of metabolically active cells based on the quantification of adenosine triphosphate (ATP). The percentage of […] relative to untreated controls was plotted as a linear function of drug concentration. The 50 % inhibitory concentration (IC50) was identified as the concentration of drug required to achieve a 50 % growth inhibition relative to untreated controls.
A stem cell–enriched cell population was prepared as described previously by sorting for ALDH1 and CD44v3. The identification of aldehyde dehydrogenase1 (ALDH1) activity from tumor–derived 4T1 Luc2-GFP cells (PerkinElmer, Waltham, MA) was conducted using the ALDEFLUOR kit (StemCell Technologies, Durham, NC). Specifically, tumor cells were suspended in ALDEFLUOR assay buffer containing ALDH1 substrate (BAAA, […] per 1 × 10^6 cells) and incubated for 30 min at 37 °C. As a negative control, 4T1 cells were treated with a specific ALDH1 inhibitor, […] diethylaminobenzaldehyde (DEAB). Next, for labeling cell surface marker, tumor–derived 4T1 cells were suspended in 100 μl ALDEFLUOR buffer followed by incubating with 20 μl allophycocyanin (APC)-labeled anti-CD44v3 antibody (recognizing the v3-specific domain of CD44) or APC-labeled normal mouse IgG (as a control) (BD Bioscience, San Jose, CA) for 15 min at 4 °C. For FACS sorting, tumor cells were incubated in PBS buffer followed by FACS (BD FACS Aria llu, BD Bioscience, San Jose, CA) sorting using dual-wavelength analysis as described previously. The parental cell line contained 2 % CD44v3highALDH1high cells but the final sorted cells contained 18 % CD44v3highALDH1high cells, a 9-fold enrichment.

[2] = MDA-MB-435 cells on SISgel, read-out: EC50-S
[3] = MDA-MB-435 cells on plastic, read-out: EC50-P
[4] = suspension culture, 5 days, read-out: EC50 4T1 stem cells in suspension culture

`O=S(=O)([O-])c1ccc2c(N=Nc3cccc4ccccc34)c(O)c(S(=O)(=O)[O-])cc2c1.[Na+].[Na+]` [DT310, 4-(1-naphthalenylhydrazinylidene) -3-oxonaphthalene-2,7-disulfonic acid] was tested, and the EC50 (MDA-MB-435 cells; [2]) was 35.9 µM, the EC50 (MDA-MB-435 cells; [3]) was 86.5 µM and the “SI (EC50-P/EC50-S)” value (MDA-MB-435 cells) was 2.4. The Fold change [1] was 9.8 and the EC50 [1, 4] was 141 µM.
`O=S(=O)([O-])c1cc(O)c2c(O)c(N=Nc3cccc4ccccc34)c(S(=O)(=O)[O-])cc2c1.[Na+].[Na+]` [DT320, 4,5-Dihydroxy-3-(1-naphthalenylazo)-2,7-naphthalenedisulfonic acid disodium salt] gave an EC50 (MDA-MB-435 cells; [2]) of 8.7 µM, an EC50 (MDA-MB-435 cells; [3]) of 78 µM and a Ratio (MDA-MB-435 cells; Matrigel/SISgel EC50, MDA-MB-435) of 2.4. For the same molecule, the “SI (EC50-P/EC50-S)” value (MDA-MB-435 cells) was 9.0, the EC50 ([1]; grown on SISgel, read-out: EC50 4T1 stem cells grown on SISgel) was 71 µM and the Fold change [1] was 2.5. For the same molecule, the EC50 [1, 4] was 50 µM.
For `COc1cccc2c1C(=O)c1c(O)c3c(c(O)c1C2=O)C[C@@](O)(C(=O)CO)C[C@@H]3O[C@H]1C[C@H](N)[C@H](O)[C@H](C)O1` [Doxorubicin, reference compound], the EC50 (MDA-MB-435 cells; Homo sapiens, MDA-MB-435 cells on SISgel, read-out: EC50-S) was 45.4 µM, the EC50 (MDA-MB-435 cells; Homo sapiens, MDA-MB-435 cells on plastic, read-out: EC50-P) was 47.8 µM and the “SI (EC50-P/EC50-S)” value (MDA-MB-435 cells) was 1.05. For the same molecule, the EC50 ([1]; Mus musculus, 4T1, 120 h, suspension culture, 5 days, read-out: EC50 4T1 stem cells in suspension culture) was 630 µM and the Fold change [1] was 134.0.
